According to patent US20100075852A1, “HERBICIDE COMBINATION COMPRISING DIMETHOXYTRIAZINYL-SUBSTITUTED DIFLUOROMETHANESULFONYLANILIDES” (BAYER CROPSCIENCE AG, priority 2008, published 2010):
Read-outs that look alike come from different tables or passages of the source.

Columns and labels:
Assay in all cases: Post-emergence action against weeds, greenhouse pot test, visual scoring
Assay type in all cases: in vivo
Oryza sativa (ORYSA) = conditions: read-out: % activity found; for inhibition at 210 g/ha: 210 g of ai/ha alone; for inhibition at 7 g/ha: 7 g of ai/ha alone
Protocol: (§1) Seeds or rhizome pieces of mono- and dicotyledonous harmful and useful plants were placed in peat pots (diameter 4 cm) filled with sandy loam and then covered with soil. The pots were kept in a greenhouse under optimum conditions. In addition, harmful plants encountered in paddy rice cultivation were cultivated in pots with a water level 2 cm above the soil surface.
(§2) About three weeks after the start of the cultivation, the test plants were treated at the 2- to 3-leaf stage. The herbicides, formulated as powder or liquid concentrates, were, either alone or in the combinations according to the invention, sprayed in various dosages on to the green parts of the plants using an application rate of 600 l of water/ha (converted). For further cultivation of the plants, the pots were then again kept under optimum conditions in a greenhouse.
(§3) The visual scoring of the herbicidal effects was carried out in intervals up to 21 days after the treatment. Scoring was carried out in percent in comparison to the untreated control plants. 0%=no herbicidal activity, 100%=complete herbicidal activity=complete kill.
(§4) The percentages from the treatments with the herbicides alone (=individual application) and with the combinations according to the invention (=mixtures) were employed to calculate interactions using the method of Colby. When the observed efficacies of the mixtures exceed the formal sum of the values of the tests with individual applications, they also exceed the expected value according to Colby, which is calculated using the formula below (cf. S. R. Colby; in Weeds 15 (1967) pp. 20 to 22):
(§5) • A, B=activity of components A and B in percent at a dosage of a and b g of ai/ha (=gramm of active substance per hectare), respectively. • E=expected value in % at a dosage of a+b g of ai/ha.

[1] = tested on: Lolium multiflorum (LOLMU); conditions: Lolium multiflorum, post-emergence, LOLMU, read-out: % activity found; for inhibition at 70 g/ha: 70 g of ai/ha alone; for inhibition at 12 g/ha: 12 g of ai/ha alone; for inhibition at 60 g/ha: 60 g of ai/ha alone; for inhibition at 750 g/ha: 750 g of ai/ha alone
Protocol: as §1, §2, §3
(§6) The percentages from the treatments with the herbicides alone (=individual application) and with the combinations according to the invention (=mixtures) were employed to calculate interactions using the method of Colby.
as §5

Zea mays (ZEAMX) = conditions: for inhibition at 36 g/ha: 36 g of ai/ha alone
Protocol: as §1, §2, §3, §6, §5

[2] = tested on: Triticum aestivum (TRZAS); conditions: Triticum aestivum, post-emergence, read-out: % activity found; for inhibition at 20 g/ha: 20 g of ai/ha alone; for inhibition at 60 g/ha: 60 g of ai/ha alone; for inhibition at 750 g/ha: 750 g of ai/ha alone
Protocol: as §1, §2, §3, §6, §5

[3] = tested on: Matricaria inodora (MATIN); conditions: Tripleurospermum inodorum, post-emergence, 504 h, MATIN, 21 DAT, read-out: % activity found
Protocol: as §1, §2, §3, §6, §5

Avena fatua (AVEFA) = conditions: Avena fatua, post-emergence, 504 h, read-out: % activity found
Protocol: as §1, §2, §3, §6, §5

[4] = tested on: Alopecurus myosuroides (ALOMY); conditions: read-out: % activity found; for inhibition at 20 g/ha: 20 g of ai/ha alone; for inhibition at 60 g/ha: 60 g of ai/ha alone
Protocol: as §1, §2, §3, §4, §5

[5] = tested on: Cyperus esculentus (CYPES)
Protocol: as §1, §2, §3, §6, §5

[6] = tested on: Fallopia (ex Polygonum) convolvulus (POLCO); conditions: Fallopia convolvulus, post-emergence, 504 h, POLCO, 21 DAT, read-out: % activity found
Protocol: as §1, §2, §3, §6, §5

Viola tricolor (VIOTR) = conditions: Viola tricolor, post-emergence, 504 h, 21 DAT, read-out: % activity found
Protocol: as §1, §2, §3, §6, §5

[7] = Zea mays, post-emergence, 240 h, read-out: % activity found
[8] = Cyperus esculentus, post-emergence, 504 h, read-out: % activity found

CC(C)Oc1cc(-n2nc(C(C)(C)C)oc2=O)c(Cl)cc1Cl [B5-3, 3-[2,4-dichloro-5-(1-methylethoxy)phenyl]-5-(1,1-dimethylethyl)-1,3,4-oxadiazol-2(3H)-one]
inhibition at 210 g/ha (Oryza sativa (ORYSA); 240 h, ORYSA, 10 DAT): 40% | inhibition at 70 g/ha (Oryza sativa (ORYSA); 504 h, ORYSA, 21 DAT, 70 g of ai/ha alone): 0% | inhibition at 210 g/ha (Oryza sativa (ORYSA); 504 h, ORYSA, 21 DAT): 0% | inhibition at 70 g/ha ([1]; 240 h, 10 DAT): 50% | inhibition at 70 g/ha ([1]; 504 h, 21 DAT): 40% | inhibition at 210 g/ha (Zea mays (ZEAMX); Zea mays, post-emergence, 504 h, ZEAMX, 21 DAT, 210 g of ai/ha alone, read-out: % activity found): 60% | inhibition at 70 g/ha ([2]; 240 h, 10 DAT, 70 g of ai/ha alone): 40% | inhibition at 70 g/ha ([3]; 70 g of ai/ha alone): 70% | inhibition at 210 g/ha ([3]; 210 g of ai/ha alone): 70% | inhibition at 70 g/ha (Avena fatua (AVEFA); AVEFA, 21 DAT, 70 g of ai/ha alone): 10% | inhibition at 210 g/ha (Avena fatua (AVEFA); AVEFA, 21 DAT, 210 g of ai/ha alone): 30%

C#CCOc1cc(-n2nc(C(C)(C)C)oc2=O)c(Cl)cc1Cl [B5-2, 3-[2,4-dichloro-5-(2-propynyloxy)phenyl]-5-(1,1-dimethylethyl)-1,3,4-oxadiazol-2(3H)-one]
inhibition at 12 g/ha ([4]; 504 h, ALOMY, 21 DAT, 12 g of ai/ha alone): 20% | inhibition at 12 g/ha ([1]; 240 h, 10 DAT): 40% | inhibition at 12 g/ha ([1]; 504 h, 21 DAT): 30% | inhibition at 36 g/ha ([1]; 504 h, 21 DAT, 36 g of ai/ha alone): 65% | inhibition at 36 g/ha (Zea mays (ZEAMX); Zea mays, post-emergence, 240 h, ZEAMX, 10 DAT, read-out: % activity found): 60% | inhibition at 36 g/ha (Zea mays (ZEAMX); Zea mays, post-emergence, 504 h, ZEAMX, 21 DAT, read-out: % activity found): 40% | inhibition at 36 g/ha ([2]; 240 h, 10 DAT, 36 g of ai/ha alone): 40% | inhibition at 12 g/ha ([3]; 12 g of ai/ha alone): 60% | inhibition at 36 g/ha ([3]; 36 g of ai/ha alone): 60% | inhibition at 12 g/ha (Avena fatua (AVEFA); AVEFA, 21 DAT, 12 g of ai/ha alone): 20%

CCOC(=O)C(Cl)Cc1cc(-n2nc(C)n(C(F)F)c2=O)c(F)cc1Cl (stereo not drawn) [B6-2, ethyl α,2-dichloro-5-[4-(difluoromethyl)-4,5-dihydro-3-methyl-5-oxo-1H-1,2,4-triazol-1-yl]-4-fluorobenzenepropanoate]
inhibition at 6 g/ha ([4]; 504 h): 0% | inhibition at 18 g/ha ([4]; 504 h): 0% | inhibition at 6 g/ha (Oryza sativa (ORYSA); 240 h): 50% | (7) activity found ([5]; CYPES, 21 DAT, rate (6) B6-2 18): 50% | (7) activity found (Zea mays (ZEAMX); ZEAMX, 21 DAT, rate (6) B6-2 6): 30% | (7) activity found (Zea mays (ZEAMX); ZEAMX, 21 DAT, rate (6) B6-2 18): 40% | inhibition at 6 g/ha (Zea mays (ZEAMX); [7]): 50% | inhibition at 18 g/ha (Zea mays (ZEAMX); [7]): 60% | inhibition at 6 g/ha (Avena fatua (AVEFA)): 10%

CS(=O)(=O)c1cc(C(F)(F)F)ccc1C(=O)c1cnoc1C1CC1 [B3-3, (5-cyclopropyl-4-isoxazolyl)[2-(methylsulfonyl)-4-(trifluoromethyl)phenyl]methanone]
inhibition at 20 g/ha ([4]; 240 h, ALOMY, 10 DAT): 20% | inhibition at 60 g/ha ([4]; 240 h, ALOMY, 10 DAT): 30% | inhibition at 20 g/ha ([4]; 504 h, ALOMY, 21 DAT): 0% | inhibition at 60 g/ha ([4]; 504 h, ALOMY, 21 DAT): 10% | inhibition at 20 g/ha (Oryza sativa (ORYSA); 240 h, ORYSA, 10 DAT, 20 g of ai/ha alone): 50% | inhibition at 60 g/ha ([1]; 240 h, 10 DAT): 30% | inhibition at 20 g/ha ([1]; 504 h, 21 DAT, 20 g of ai/ha alone): 0% | inhibition at 60 g/ha ([1]; 504 h, 21 DAT): 0% | inhibition at 20 g/ha ([5]; Cyperus esculentus, post-emergence, 504 h, CYPES, 21 DAT, 20 g of ai/ha alone, read-out: % activity found): 0% | inhibition at 20 g/ha ([6]; 20 g of ai/ha alone): 0% | inhibition at 60 g/ha ([6]; 60 g of ai/ha alone): 0% | inhibition at 20 g/ha (Zea mays (ZEAMX); Zea mays, post-emergence, 504 h, ZEAMX, 21 DAT, 20 g of ai/ha alone, read-out: % activity found): 0% | inhibition at 60 g/ha (Zea mays (ZEAMX); Zea mays, post-emergence, 504 h, ZEAMX, 21 DAT, 60 g of ai/ha alone, read-out: % activity found): 20% | inhibition at 20 g/ha ([2]; 240 h, 10 DAT): 30% | inhibition at 60 g/ha ([2]; 240 h, 10 DAT): 50% | inhibition at 20 g/ha ([2]; 504 h, 21 DAT): 20% | inhibition at 60 g/ha ([2]; 504 h, 21 DAT): 40%

COCc1cnc(C2=NC(C)(C(C)C)C(=O)N2)c(C(=O)O)c1 (racemic) [B4-2, (±)-2-[4,5-dihydro-4-methyl-4-(1-methylethyl)-5-oxo-1H-imidazol-2-yl]-5-(methoxymethyl)-3-pyridinecarboxylic acid]
inhibition at 7 g/ha (Oryza sativa (ORYSA); 240 h, ORYSA, 10 DAT): 70% | inhibition at 7 g/ha (Oryza sativa (ORYSA); 504 h, ORYSA, 21 DAT): 70% | inhibition at 7 g/ha ([1]; 504 h, 21 DAT, 7 g of ai/ha alone): 80% | inhibition at 7 g/ha (Viola tricolor (VIOTR); 7 g of ai/ha alone): 20% | inhibition at 21 g/ha (Viola tricolor (VIOTR); 21 g of ai/ha alone): 40% | inhibition at 7 g/ha ([5]; Cyperus esculentus, post-emergence, 504 h, CYPES, 21 DAT, 7 g of ai/ha alone, read-out: % activity found): 0% | inhibition at 7 g/ha (Zea mays (ZEAMX); Zea mays, post-emergence, 504 h, ZEAMX, 21 DAT, 7 g of ai/ha alone, read-out: % activity found): 10% | inhibition at 21 g/ha (Zea mays (ZEAMX); Zea mays, post-emergence, 504 h, ZEAMX, 21 DAT, 21 g of ai/ha alone, read-out: % activity found): 60% | inhibition at 21 g/ha (Avena fatua (AVEFA); AVEFA, 21 DAT, 21 g of ai/ha alone): 70%

CC(C)c1nn(C(=O)NC(C)(C)C)c(=O)n1N [B6-1, 4-amino-N-(1,1-dimethylethyl)-4,5-dihydro-3-(1-methylethyl)-5-oxo-1H-1,2,4-triazole-1-carboxamide]
inhibition at 750 g/ha ([4]; 504 h, ALOMY, 21 DAT, 750 g of ai/ha alone): 70% | inhibition at 750 g/ha ([1]; 240 h, 10 DAT): 60% | inhibition at 750 g/ha ([1]; 504 h, 21 DAT): 70% | inhibition at 250 g/ha [5, 8]: 0% | inhibition at 750 g/ha [5, 8]: 0% | inhibition at 750 g/ha (Zea mays (ZEAMX); Zea mays, post-emergence, 504 h, ZEAMX, 21 DAT, 750 g of ai/ha alone, read-out: % activity found): 10% | inhibition at 250 g/ha ([2]; 240 h, 10 DAT, 250 g of ai/ha alone): 10% | inhibition at 750 g/ha ([2]; 240 h, 10 DAT): 20% | inhibition at 750 g/ha ([2]; 504 h, 21 DAT): 70%
